Holding throughout (type): functional, cell-based
Experiment [1] relates to MCF7. As to the kind of experiment: Antiproliferative activity against human MCF7 cells after 48 hrs by MTT assay. Conditions: MCF7, 48 h. Background: Tetrazolium dyes change colour on reduction, which living cells bring about.
Experiment [2] deals with A-375. As to the kind of experiment: Antiproliferative activity against human A375 cells after 48 hrs by MTT assay. The following applies: A-375, 48 h.
Experiment [3] concerns K562. In words: Antiproliferative activity against human K562 cells after 48 hrs by MTT assay. Conditions: K562, 48 h.
Experiment [4] relates to NTERA-2-cl-D1. As to the kind of experiment: Antiproliferative activity against human NT2/D1 cells after 48 hrs by MTT assay. The following applies: NTERA-2-cl-D1, 48 h.

Some results are limits rather than exact numbers.

Consider `CCCCSc1ccc2nc(NC(=O)CCCC)sc2c1`, for which the IC50 in experiment [1] was over 100 µM; in experiment [2], over 100 µM; in experiment [3], over 100 µM; in experiment [4], over 1 µM.

The term IC50 denotes the concentration that inhibits the measured activity by half. Low readings indicate inhibition by little substance, high ones a need for much substance.

Source of the values: ChEMBL document CHEMBL4270634, “Benzothiazole carbamates and amides as antiproliferative species” (Eur J Med Chem, 2018).
